Reference: ChEMBL document CHEMBL1130788, “Synthesis and antitumor activity of leinamycin derivatives: modifications of C-8 hydroxy and C-9 keto groups” (Bioorg Med Chem Lett, 1998)

Experiments:
P388 [1] = assay: In vivo antitumor activity of compound was tested as maximal increase in life span (ILSmax) against lymphocytic leukemia P388 in mice; format: functional, Mus musculus
P388 [2] = assay: Compound was tested in vivo for antitumor activity against lymphocytic leukemia P388 in mice; format: functional, Mus musculus
HeLa = assay: In vitro antiproliferative activity against human uterine carcinoma HeLa S3 cells.; format: functional, cell-based

SMILES | ILSmax (P388 [1]) [%] | Optimal dose (P388 [2]) [mg/kg] | IC50 (HeLa; Homo sapiens, HeLa) [nM] | IC50 (HeLa; hela) [nM]
C/C1=C\[C@@H](OC(=O)C2CCCCC2)C(=O)/C=C/C=C\c2csc(n2)[C@@H](C)NC(=O)C[C@@]2(CC1)[S+]([O-])SC(=O)[C@]2(C)O (stereo partly drawn) | 49 | 4 | 58 | 
C/C1=C\[C@@H](OC(=O)c2ccccc2)C(=O)/C=C/C=C\c2csc(n2)[C@@H](C)NC(=O)C[C@@]2(CC1)[S+]([O-])SC(=O)[C@]2(C)O (stereo partly drawn) | 36 | 2 | 130 | 
CCOC(=O)O[C@@H]1/C=C(\C)CC[C@]2(CC(=O)N[C@H](C)c3nc(cs3)/C=C\C=C\C1=O)[S+]([O-])SC(=O)[C@]2(C)O (stereo partly drawn) | 31 | 2 | 1.4 | 
C/C1=C\[C@@H](OC(=O)Oc2ccc([N+](=O)[O-])cc2)C(=O)/C=C/C=C\c2csc(n2)[C@@H](C)NC(=O)C[C@@]2(CC1)[S+]([O-])SC(=O)[C@]2(C)O (stereo partly drawn) | 57 | 2 | 22 | 
CC(=O)O[C@@H]1/C=C(\C)CC[C@]2(CC(=O)N[C@H](C)c3nc(cs3)/C=C\C=C\C1=O)[S+]([O-])SC(=O)[C@]2(C)O (stereo partly drawn) | 34 | 1 | 10 | 
C/C1=C\[C@@H](OC2CCCCO2)C(=O)/C=C/C=C\c2csc(n2)[C@@H](C)NC(=O)C[C@@]2(CC1)[S+]([O-])SC(=O)[C@]2(C)O (stereo partly drawn) | 28 | 0.13 | 1.3 | 
C/C1=C\[C@@H](OC(=O)c2cnc3ccccc3n2)C(=O)/C=C/C=C\c2csc(n2)[C@@H](C)NC(=O)C[C@@]2(CC1)[S+]([O-])SC(=O)[C@]2(C)O (stereo partly drawn) | 44 | 2 | 6.8 | 
C/C1=C\[C@@H](O)C(=N/O)/C=C/C=C\c2csc(n2)[C@@H](C)NC(=O)C[C@@]2(CC1)[S+]([O-])SC(=O)[C@]2(C)O (stereo partly drawn) |  |  | 910 | 
CCCCCCCCCCCCCCCC(=O)O[C@@H]1/C=C(\C)CC[C@]2(CC(=O)N[C@H](C)c3nc(cs3)/C=C\C=C\C1=O)[S+]([O-])SC(=O)[C@]2(C)O (stereo partly drawn) | 37 | 16 | 7700 | 
C/C1=C\[C@@H](OC(=O)N2CCCCC2)C(=O)/C=C/C=C\c2csc(n2)[C@@H](C)NC(=O)C[C@@]2(CC1)[S+]([O-])SC(=O)[C@]2(C)O (stereo partly drawn) |  |  | 180 | 
COC1(O[C@@H]2/C=C(\C)CC[C@]3(CC(=O)N[C@H](C)c4nc(cs4)/C=C\C=C\C2=O)[S+]([O-])SC(=O)[C@]3(C)O)CCOCC1 (stereo partly drawn) | 35 | 2 | 18 | 
CC(=O)O[C@@H]1/C=C(\C)CC[C@]2(CC(=O)N[C@H](C)c3nc(cs3)/C=C\C=C\C1=O)[S+]([O-])SC(=O)[C@]2(C)OC(C)=O (stereo partly drawn) | 15 | 2 | 780 | 
COC1(OC)/C=C/C=C\c2csc(n2)[C@@H](C)NC(=O)C[C@@]2(CC/C(C)=C/[C@H]1O)[S+]([O-])SC(=O)[C@]2(C)O (stereo partly drawn) |  |  | > 10000 | 
C/C1=C\[C@@H](O)C(O)/C=C/C=C\c2csc(n2)[C@@H](C)NC(=O)C[C@@]2(CC1)[S+]([O-])SC(=O)[C@]2(C)O (stereo in doubt; 7-1) |  |  |  | 6200
C/C1=C\[C@@H](O)C(O)/C=C/C=C\c2csc(n2)[C@@H](C)NC(=O)C[C@@]2(CC1)[S+]([O-])SC(=O)[C@]2(C)O (stereo in doubt; 7-2) |  |  | 4900 | 
CO\N=C1/C=C/C=C\c2csc(n2)[C@@H](C)NC(=O)C[C@@]2(CC/C(C)=C/[C@H]1O)[S+]([O-])SC(=O)[C@]2(C)O (stereo in doubt; 9b-1) |  |  |  | 67
CO\N=C1/C=C/C=C\c2csc(n2)[C@@H](C)NC(=O)C[C@@]2(CC/C(C)=C/[C@H]1O)[S+]([O-])SC(=O)[C@]2(C)O (stereo in doubt; 9b-2) | 21 | 2 | 110 | 
C/C1=C\[C@@H](O)C(=N/OCc2ccccc2)/C=C/C=C\c2csc(n2)[C@@H](C)NC(=O)C[C@@]2(CC1)[S+]([O-])SC(=O)[C@]2(C)O (stereo in doubt; 9c-1) | 29 | 8 |  | 110
C/C1=C\[C@@H](O)C(=N/OCc2ccccc2)/C=C/C=C\c2csc(n2)[C@@H](C)NC(=O)C[C@@]2(CC1)[S+]([O-])SC(=O)[C@]2(C)O (stereo in doubt; 9c-2) | 31 | 2 |  | 9.5
C/C1=C\[C@@H](O)C(=O)/C=C/C=C\c2csc(n2)[C@@H](C)NC(=O)C[C@@]2(CC1)[S+]([O-])SC(=O)[C@]2(C)O (stereo partly drawn) [LEINAMYCIN] | 57 | 0.38 | 11 | 
